Measurements: BindingDB's records for doi:10.1016/0024-3205(82)90293-4 (University of Arizona, 1982)
pKi: −log10 of the molar value. Where “and” joins values, the source holds several entries; their conditions need not be identical. Equal entries are not always repeated.

biological target: Voltage-dependent L-type calcium channel subunit alpha-1C (Rattus norvegicus, UniProt P22002)
Sequence (P22002 whole entry): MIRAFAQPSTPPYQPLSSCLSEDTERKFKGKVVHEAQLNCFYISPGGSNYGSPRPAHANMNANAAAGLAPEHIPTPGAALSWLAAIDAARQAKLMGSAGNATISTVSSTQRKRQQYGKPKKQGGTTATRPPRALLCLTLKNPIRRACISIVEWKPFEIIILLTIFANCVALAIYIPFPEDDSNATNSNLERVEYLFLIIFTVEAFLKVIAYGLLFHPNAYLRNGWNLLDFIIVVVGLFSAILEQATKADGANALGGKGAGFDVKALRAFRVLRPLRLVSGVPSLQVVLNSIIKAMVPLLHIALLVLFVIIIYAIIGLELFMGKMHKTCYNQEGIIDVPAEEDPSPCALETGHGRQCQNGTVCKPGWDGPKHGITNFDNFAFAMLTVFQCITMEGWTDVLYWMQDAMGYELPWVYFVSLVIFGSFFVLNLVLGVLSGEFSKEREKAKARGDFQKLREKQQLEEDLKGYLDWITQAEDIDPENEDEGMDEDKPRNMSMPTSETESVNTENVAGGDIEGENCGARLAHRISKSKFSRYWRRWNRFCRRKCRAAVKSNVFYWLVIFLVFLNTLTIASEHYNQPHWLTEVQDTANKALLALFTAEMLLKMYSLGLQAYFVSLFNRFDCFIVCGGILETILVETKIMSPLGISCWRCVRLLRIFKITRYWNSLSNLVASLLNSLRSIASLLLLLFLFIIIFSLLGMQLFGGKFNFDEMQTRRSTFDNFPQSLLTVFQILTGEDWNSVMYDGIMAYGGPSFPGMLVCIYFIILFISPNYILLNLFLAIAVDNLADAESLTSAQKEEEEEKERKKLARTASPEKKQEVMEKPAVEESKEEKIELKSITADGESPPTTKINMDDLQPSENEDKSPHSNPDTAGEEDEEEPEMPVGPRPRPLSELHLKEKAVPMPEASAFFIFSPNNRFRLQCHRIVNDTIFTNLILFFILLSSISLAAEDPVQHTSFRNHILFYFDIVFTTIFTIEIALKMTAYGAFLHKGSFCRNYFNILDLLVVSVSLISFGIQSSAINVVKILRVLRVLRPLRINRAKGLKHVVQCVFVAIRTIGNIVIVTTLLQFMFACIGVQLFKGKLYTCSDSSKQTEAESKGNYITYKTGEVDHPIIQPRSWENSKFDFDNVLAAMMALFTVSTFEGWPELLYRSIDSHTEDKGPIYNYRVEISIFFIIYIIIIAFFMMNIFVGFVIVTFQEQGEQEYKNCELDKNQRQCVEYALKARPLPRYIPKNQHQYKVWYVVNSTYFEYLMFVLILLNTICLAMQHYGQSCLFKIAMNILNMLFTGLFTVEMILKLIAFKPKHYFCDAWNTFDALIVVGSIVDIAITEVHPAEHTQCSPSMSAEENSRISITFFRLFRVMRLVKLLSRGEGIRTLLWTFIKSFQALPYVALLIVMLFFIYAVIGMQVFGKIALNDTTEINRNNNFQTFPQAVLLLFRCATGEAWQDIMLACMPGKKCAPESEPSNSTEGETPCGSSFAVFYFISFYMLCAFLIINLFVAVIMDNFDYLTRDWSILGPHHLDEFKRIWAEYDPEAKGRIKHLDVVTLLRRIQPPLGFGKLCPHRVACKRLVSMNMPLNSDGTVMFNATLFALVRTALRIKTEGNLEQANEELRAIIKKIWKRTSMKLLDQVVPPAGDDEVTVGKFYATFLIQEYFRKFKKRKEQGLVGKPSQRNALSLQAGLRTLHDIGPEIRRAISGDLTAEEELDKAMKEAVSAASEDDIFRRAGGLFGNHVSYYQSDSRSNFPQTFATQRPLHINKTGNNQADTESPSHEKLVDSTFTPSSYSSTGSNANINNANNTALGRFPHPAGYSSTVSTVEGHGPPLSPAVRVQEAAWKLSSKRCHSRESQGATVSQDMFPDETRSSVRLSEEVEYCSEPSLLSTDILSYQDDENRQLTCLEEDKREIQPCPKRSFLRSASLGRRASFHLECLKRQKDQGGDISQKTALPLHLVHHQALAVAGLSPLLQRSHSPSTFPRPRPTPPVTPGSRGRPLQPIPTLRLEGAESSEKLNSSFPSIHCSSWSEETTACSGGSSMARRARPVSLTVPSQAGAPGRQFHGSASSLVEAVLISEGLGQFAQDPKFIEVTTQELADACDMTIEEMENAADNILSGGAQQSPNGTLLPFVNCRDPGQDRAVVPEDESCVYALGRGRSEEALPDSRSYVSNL

**Q.** With `COCCOC(=O)C1=C(C)N=C(C)C(C(=O)OC(C)C)C1c1cccc([N+](=O)[O-])c1` (stereo not drawn) [Nimotop] as the molecule, how does the pKi read?
**A.** 9.25 and 9.10

**Q.** How did the pKi turn out when `COc1ccc(CCN(C)CCCC(C#N)(c2cc(OC)c(OC)c(OC)c2)C(C)C)cc1OC` (stereo not drawn) [GALLOPAMIL] was run?
**A.** 7.38

**Q.** With `COC(=O)C1C(C)=NC(C)=C(C(=O)OCC(C)C)C1c1ccccc1[N+](=O)[O-]` (stereo not drawn) [CAS_4499] as the molecule, how does the pKi read?
**A.** 9.48 and 9.30
